These results are taken from article PMC4772679 (Environmental toxicology and chemistry / SETAC, 2015).

The structures appear in SMILES notation. Like-named read-outs stand apart in the source and are kept apart here.

Assay [1] concerns BG1LucERβc9 cells. Kind of assay: Antagonism of agonist-induced luciferase activity in BG1LucERβc9 cells. The format is cell-based, human. The following applies: for inhibition of E2-inducible reporter gene expression in BG1LucERβc9 cells: Supplemental Figure S5.
Assay [2] relates to BG1LucERβc9 cells. Kind of assay: Luciferase induction in stably transfected BG1LucERβc9 cells. The format is cell-based, human. The following applies: for MDL (minimal detection limit) [M], BG1LucERβc9 / EC50: 24 h; for EC50: read-out: EC50 [M], BG1LucERβc9; for Maximum Induction (RLU), BG1LucERβc9: at 30 µM Genistein, 10 µM Br-ERβ-041, 0.1 nM E2, 1 µM PPT.
Assay [3] concerns BG1Luc4E2 cells. Kind of assay: Luciferase induction in stably transfected BG1Luc4E2 cells. The format is cell-based, human. The settings on record: for MDL (minimal detection limit) [M], BG1Luc4E2 / EC50 / luciferase activity in BG1Luc4E2 cells, initial library screen: 24 h; for EC50: read-out: EC50 [M], BG1Luc4E2; for Maximum Induction (RLU), BG1Luc4E2: at 30 µM Genistein, 10 µM Br-ERβ-041, 0.1 nM E2, 1 µM PPT; for luciferase activity in BG1Luc4E2 cells, initial library screen: 10 µM, normalized to 1 nM E2, single screen in triplicate.

The target in the next assay is ERβ (Homo sapiens, UniProt Q92731). Kind of assay: ER-responsive luciferase reporter. The format is cell-based. The settings on record: SKBR3 cells, ERβ expression plasmid, 24 h, mean ± SD of three experiments.
Chain of ERβ (Q92731 whole entry): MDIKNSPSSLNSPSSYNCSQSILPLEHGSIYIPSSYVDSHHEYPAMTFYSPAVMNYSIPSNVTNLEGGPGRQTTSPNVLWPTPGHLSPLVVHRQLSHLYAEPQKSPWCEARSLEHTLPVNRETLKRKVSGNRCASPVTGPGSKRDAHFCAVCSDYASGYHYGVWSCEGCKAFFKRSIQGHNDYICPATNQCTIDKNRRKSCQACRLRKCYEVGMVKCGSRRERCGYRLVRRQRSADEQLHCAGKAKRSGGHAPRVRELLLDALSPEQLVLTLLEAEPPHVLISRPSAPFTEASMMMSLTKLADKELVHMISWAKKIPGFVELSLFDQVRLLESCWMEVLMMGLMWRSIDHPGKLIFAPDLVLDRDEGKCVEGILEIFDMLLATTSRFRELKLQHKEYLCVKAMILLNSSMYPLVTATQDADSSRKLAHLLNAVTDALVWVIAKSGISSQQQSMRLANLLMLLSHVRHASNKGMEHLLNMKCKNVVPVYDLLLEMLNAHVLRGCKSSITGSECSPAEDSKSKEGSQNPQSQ
Another assay concerns the target T1, ERα (Homo sapiens, UniProt P03372).
T1 sequence (P03372 1-595): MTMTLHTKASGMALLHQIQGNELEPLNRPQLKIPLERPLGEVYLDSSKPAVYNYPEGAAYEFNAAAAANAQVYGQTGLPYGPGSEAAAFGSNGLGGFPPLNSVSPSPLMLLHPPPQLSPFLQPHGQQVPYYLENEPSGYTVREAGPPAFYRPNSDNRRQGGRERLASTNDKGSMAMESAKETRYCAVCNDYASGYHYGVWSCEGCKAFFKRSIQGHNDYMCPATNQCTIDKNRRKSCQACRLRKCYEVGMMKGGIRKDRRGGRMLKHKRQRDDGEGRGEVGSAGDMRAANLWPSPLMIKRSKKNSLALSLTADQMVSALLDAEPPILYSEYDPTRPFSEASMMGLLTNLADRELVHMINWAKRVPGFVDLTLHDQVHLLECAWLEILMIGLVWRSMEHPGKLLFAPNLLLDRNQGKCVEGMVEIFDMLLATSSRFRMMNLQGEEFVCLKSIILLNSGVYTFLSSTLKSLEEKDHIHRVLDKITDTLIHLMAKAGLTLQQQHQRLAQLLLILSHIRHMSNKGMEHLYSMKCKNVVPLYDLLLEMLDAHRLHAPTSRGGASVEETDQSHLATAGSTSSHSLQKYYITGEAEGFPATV
Kind of assay: ER-responsive luciferase reporter. The format is cell-based. The settings on record: read-out: EC50 [M], ERα; SKBR3 cells, ERα expression plasmid, 24 h, mean ± SD of three experiments.

Assay [4] deals with BG1Luc4E2 cells. Kind of assay: Antagonism of agonist-induced luciferase activity in BG1Luc4E2 cells. The format is cell-based, human. The settings on record: p < 0.05, Student's t-test.
Setting [5] is: mean ± SD of 8–16 experiments, genistein and Br-ERβ-041 at 50% of maximum E2 activity.

`CC/C(=C(\c1ccc(O)cc1)c1ccc(OCCN(C)C)cc1)c1ccccc1` [Chemical 4-OHT, 4-hydroxy tamoxifen]: in the assay on BG1LucERβc9 cells [1], the “inhibition of E2-inducible reporter gene expression in BG1LucERβc9 cells” value is recorded as “inhibit E2-inducible reporter gene expression”.
Turning to `C[C@]12CC[C@@H]3c4ccc(O)cc4CC[C@H]3[C@@H]1CC[C@@H]2O` [Chemical E2, 17β-estradiol], in the assay with BG1LucERβc9 cells [2], the “MDL (minimal detection limit) [M], BG1LucERβc9” value was determined as 1e-12 M and the “Maximum Induction (RLU), BG1LucERβc9” value is listed as 5,236 ± 71 RLU. The concentration for a half-maximal effect (EC50) in the assay on BG1LucERβc9 cells [2] (Homo sapiens) amounted to 1.3e-11 M. Further, in the assay on BG1Luc4E2 cells [3], the “MDL (minimal detection limit) [M], BG1Luc4E2” value came out at 3e-12 M and the “Maximum Induction (RLU), BG1Luc4E2” value is 10,594 ± 250 RLU. Besides, the EC50 in the assay with BG1Luc4E2 cells [3] (Homo sapiens) is 1.6e-11 M.
Take `CCNc1nc(Cl)nc(NC(C)(C)C#N)n1` [Chemical P12, cyanazine]: the “luciferase activity in BG1Luc4E2 cells, initial library screen” value with BG1Luc4E2 cells [3] is “not inducing significant luciferase activity above background”.
On the same count and under the same terms, in the case of `CC(C)(c1ccc(O)cc1)c1ccc(O)cc1` [Chemical P159, bisphenol A] it was “high activity”.
Consider `O=c1c(-c2ccc(O)cc2)coc2cc(O)cc(O)c12` [Genistein, genistein], for which, in the assay on BG1LucERβc9 cells [2], the “MDL (minimal detection limit) [M], BG1LucERβc9” value turned out to be 1e-08 M and the “Maximum Induction (RLU), BG1LucERβc9” value is 8,804 ± 306 RLU. In addition, the EC50 in the assay with BG1LucERβc9 cells [2] (Homo sapiens) is 2e-08 M. In the assay on BG1Luc4E2 cells [3], the “MDL (minimal detection limit) [M], BG1Luc4E2” value worked out at 1e-07 M and the “Maximum Induction (RLU), BG1Luc4E2” value is 17,623 ± 575 RLU. Also, the “ERα-dependent reporter gene induction in BG1Luc4E2 cells at low concentration” value in the assay with BG1Luc4E2 cells [3] (Br-ERβ-041 31.6 nM, genistein 10 nM, preliminary studies, data not shown) was “failed to induce”. Also, the half-maximal effective concentration (EC50) in the assay with BG1Luc4E2 cells [3] (Homo sapiens) was found to be 1.7e-07 M.
Consider `CCCc1c(-c2ccc(O)cc2)nn(-c2ccc(O)cc2)c1-c1ccc(O)cc1` [PPT, 4,4’,4”-(4-Proply-[1H]-pyrazole-1,3,5-triyl)trisphenol], for which, at ERβ, the “EC50 [M], ERβ” value is given as “No induction”. For the same compound, the EC50 was 2.5e-10 M on ERα, 3.2e-09 M with BG1LucERβc9 cells [2] (setting [5]) and 6.7e-10 M in the assay on BG1Luc4E2 cells [3] (setting [5]). Also, the “MDL (minimal detection limit) [M], BG1LucERβc9” value in the assay with BG1LucERβc9 cells [2] stood at 1e-10 M. Moreover, the “Maximum Induction (RLU), BG1LucERβc9” value in the assay with BG1LucERβc9 cells [2] was 7,017 ± 188 RLU. For the same compound, the “MDL (minimal detection limit) [M], BG1Luc4E2” value in the assay on BG1Luc4E2 cells [3] was 1e-10 M. In the assay with BG1Luc4E2 cells [3], the “Maximum Induction (RLU), BG1Luc4E2” value is 11,422 ± 356 RLU.
Turning to `C[C@]12CC[C@@H]3c4ccc(O)cc4C[C@@H](CCCCCCCCC[S+]([O-])CCCC(F)(F)C(F)(F)F)[C@H]3[C@@H]1CC[C@@H]2O` (stereo partly drawn) [fulvestrant, Fulvestrant], the “inhibition of E2-inducible reporter gene expression in BG1LucERβc9 cells” value in the assay on BG1LucERβc9 cells [1] was “inhibit E2-inducible reporter gene expression”. For the same compound, the “concentration-dependent antagonism of E2-induced luciferase activity, BG1LucERβc9 vs BG1Luc4E2 cells” value in the assay on BG1LucERβc9 cells [1] (comparison of both cell lines) was “comparable”. The “antagonism of Br-ERβ-041 induced activity in BG1Luc4E2 cells versus BG1LucERβc9 cells” value in the assay with BG1Luc4E2 cells [4] was “significantly more potent antagonist”.
